Reference: ChEMBL document CHEMBL1201862, “PubChem BioAssay data set” (2004)
Calls of active or inactive are those of the source.

Experiments:
[1] = target: T1, High affinity choline transporter 1 (Homo sapiens, UniProt Q9GZV3); assay: CHT inhibitors, dose response, cell-based, 5-point CRC, membrane potential dye (AID 504840); format: functional
T1 sequence (Q9GZV3 whole entry): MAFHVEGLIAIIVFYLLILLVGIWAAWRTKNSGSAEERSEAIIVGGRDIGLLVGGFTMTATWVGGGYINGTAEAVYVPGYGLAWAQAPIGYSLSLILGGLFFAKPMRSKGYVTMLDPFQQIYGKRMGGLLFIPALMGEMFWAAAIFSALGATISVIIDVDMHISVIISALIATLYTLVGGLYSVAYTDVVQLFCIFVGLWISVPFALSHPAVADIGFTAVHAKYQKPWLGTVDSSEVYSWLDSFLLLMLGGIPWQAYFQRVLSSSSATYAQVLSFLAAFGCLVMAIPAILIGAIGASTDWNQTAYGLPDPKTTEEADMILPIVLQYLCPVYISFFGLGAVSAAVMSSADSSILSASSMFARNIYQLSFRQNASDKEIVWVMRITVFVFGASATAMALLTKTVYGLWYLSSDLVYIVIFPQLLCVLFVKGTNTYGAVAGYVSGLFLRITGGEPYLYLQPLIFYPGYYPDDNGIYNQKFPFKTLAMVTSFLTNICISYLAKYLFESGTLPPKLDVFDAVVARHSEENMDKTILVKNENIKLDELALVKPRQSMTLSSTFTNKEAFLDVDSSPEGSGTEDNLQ

[2] = target: T2, RNA-binding protein pos-1 (Caenorhabditis elegans, UniProt G5EF15); assay: inhibitors of POS-1/mex-3 RNA binding, dose response, biochemical, fluorescence polarization (AID 1964);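 also: purified POS-1 fused to maltose binding protein made in E. coli; potency of compounds blocking POS-1 binding to fluorescent RNA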
T2 sequence (G5EF15 whole entry): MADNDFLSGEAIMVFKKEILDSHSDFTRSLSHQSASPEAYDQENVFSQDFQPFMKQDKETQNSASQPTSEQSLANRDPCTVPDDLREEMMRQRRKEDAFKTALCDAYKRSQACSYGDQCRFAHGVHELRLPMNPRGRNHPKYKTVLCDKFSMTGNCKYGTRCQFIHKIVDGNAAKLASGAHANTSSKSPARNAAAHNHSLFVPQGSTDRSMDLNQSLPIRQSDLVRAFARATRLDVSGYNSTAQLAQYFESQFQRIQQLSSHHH

[3] = target: T3, Zinc finger protein mex-5 (Caenorhabditis elegans, UniProt Q9XUB2); assay: MEX-5/TCR-2 RNA interaction inhibitors, dose response, biochemical, C. elegans, fluorescence polarization (AID 1960)
T3 sequence (Q9XUB2 whole entry): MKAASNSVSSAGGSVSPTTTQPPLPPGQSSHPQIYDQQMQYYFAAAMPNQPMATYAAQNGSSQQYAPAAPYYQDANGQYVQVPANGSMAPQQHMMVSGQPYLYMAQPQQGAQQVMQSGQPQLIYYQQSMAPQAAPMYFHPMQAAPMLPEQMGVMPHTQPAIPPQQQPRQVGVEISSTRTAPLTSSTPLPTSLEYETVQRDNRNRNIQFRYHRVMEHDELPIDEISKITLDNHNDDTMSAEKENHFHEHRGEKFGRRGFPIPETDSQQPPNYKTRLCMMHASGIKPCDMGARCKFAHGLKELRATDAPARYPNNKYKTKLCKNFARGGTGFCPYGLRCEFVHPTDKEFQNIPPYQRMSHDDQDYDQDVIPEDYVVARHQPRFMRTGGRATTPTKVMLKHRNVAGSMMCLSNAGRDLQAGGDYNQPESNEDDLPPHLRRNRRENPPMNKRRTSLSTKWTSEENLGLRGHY

[4] = target: T4, Endoribonuclease toxin MazF (Escherichia coli K-12, UniProt P0AE70); assay: MazF toxin RNase activators, dose response, biochemical, fluorescence, single-stranded RNA substrate, uHTS hits (AID 588481); format: functional
T4 sequence (P0AE70 whole entry): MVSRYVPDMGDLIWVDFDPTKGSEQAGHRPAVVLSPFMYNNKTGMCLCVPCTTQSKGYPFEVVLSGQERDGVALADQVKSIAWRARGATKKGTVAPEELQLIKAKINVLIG

[5] = target: T4, Endoribonuclease toxin MazF; assay: fluorescent RNA oligo signal without MazF, dose response, counter-screen for MazEF activator project, biochemical, fluorescence, single-stranded RNase substrate (AID 588502); format: functional
[6] = cytotoxicity in HEK-293T cells, dose response, cytotoxicity control for BCR NF-kB inhibitor project, luminescence, B-cell screen hits (AID 489021); format: functional, cell-based;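 also: HEK-293T cells carrying an NF-kB luciferase reporter; cells exposed to compound for about 14 hours before viability readout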
[7] = target: T5, Sentrin-specific protease 8 (Homo sapiens, UniProt Q96LD8); assay: SENP8 protease inhibitors, SAR follow-up, biochemical, luminescence (AID 504501); format: functional
T5 sequence (Q96LD8 whole entry): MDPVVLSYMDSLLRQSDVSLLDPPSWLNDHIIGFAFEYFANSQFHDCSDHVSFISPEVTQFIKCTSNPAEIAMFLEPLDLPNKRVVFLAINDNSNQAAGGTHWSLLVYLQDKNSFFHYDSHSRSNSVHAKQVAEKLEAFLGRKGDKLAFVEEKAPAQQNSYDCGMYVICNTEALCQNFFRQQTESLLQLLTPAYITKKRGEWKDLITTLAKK

[8] = target: T6, Caspase-3 (Homo sapiens, UniProt P42574); assay: SAR Analysis of small molecule inhibitors of Sentrin-specific proteases (SENPs) using a Caspase-3 Selectivity assay. [Related pubchem assays (depositor defined):AID2540, AID2599, AID434973, AID489001]; format: functional
T6 sequence (P42574 whole entry): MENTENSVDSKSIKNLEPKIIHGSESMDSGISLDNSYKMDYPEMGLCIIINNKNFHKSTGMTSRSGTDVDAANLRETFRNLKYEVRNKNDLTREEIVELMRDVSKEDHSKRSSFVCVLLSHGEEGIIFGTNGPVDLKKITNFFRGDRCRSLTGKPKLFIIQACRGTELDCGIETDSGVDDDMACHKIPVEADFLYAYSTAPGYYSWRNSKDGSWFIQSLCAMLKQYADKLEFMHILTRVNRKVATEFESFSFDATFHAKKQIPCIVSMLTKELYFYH

[9] = target: T7, Sentrin-specific protease 6 (Homo sapiens, UniProt Q9GZR1); assay: SAR Analysis of small molecule inhibitors of Sentrin-specific protease 6 (SENP6) using a Luminescent assay. [Related pubchem assays (depositor defined):AID2582, AID2599]; format: functional
T7 sequence (Q9GZR1 whole entry): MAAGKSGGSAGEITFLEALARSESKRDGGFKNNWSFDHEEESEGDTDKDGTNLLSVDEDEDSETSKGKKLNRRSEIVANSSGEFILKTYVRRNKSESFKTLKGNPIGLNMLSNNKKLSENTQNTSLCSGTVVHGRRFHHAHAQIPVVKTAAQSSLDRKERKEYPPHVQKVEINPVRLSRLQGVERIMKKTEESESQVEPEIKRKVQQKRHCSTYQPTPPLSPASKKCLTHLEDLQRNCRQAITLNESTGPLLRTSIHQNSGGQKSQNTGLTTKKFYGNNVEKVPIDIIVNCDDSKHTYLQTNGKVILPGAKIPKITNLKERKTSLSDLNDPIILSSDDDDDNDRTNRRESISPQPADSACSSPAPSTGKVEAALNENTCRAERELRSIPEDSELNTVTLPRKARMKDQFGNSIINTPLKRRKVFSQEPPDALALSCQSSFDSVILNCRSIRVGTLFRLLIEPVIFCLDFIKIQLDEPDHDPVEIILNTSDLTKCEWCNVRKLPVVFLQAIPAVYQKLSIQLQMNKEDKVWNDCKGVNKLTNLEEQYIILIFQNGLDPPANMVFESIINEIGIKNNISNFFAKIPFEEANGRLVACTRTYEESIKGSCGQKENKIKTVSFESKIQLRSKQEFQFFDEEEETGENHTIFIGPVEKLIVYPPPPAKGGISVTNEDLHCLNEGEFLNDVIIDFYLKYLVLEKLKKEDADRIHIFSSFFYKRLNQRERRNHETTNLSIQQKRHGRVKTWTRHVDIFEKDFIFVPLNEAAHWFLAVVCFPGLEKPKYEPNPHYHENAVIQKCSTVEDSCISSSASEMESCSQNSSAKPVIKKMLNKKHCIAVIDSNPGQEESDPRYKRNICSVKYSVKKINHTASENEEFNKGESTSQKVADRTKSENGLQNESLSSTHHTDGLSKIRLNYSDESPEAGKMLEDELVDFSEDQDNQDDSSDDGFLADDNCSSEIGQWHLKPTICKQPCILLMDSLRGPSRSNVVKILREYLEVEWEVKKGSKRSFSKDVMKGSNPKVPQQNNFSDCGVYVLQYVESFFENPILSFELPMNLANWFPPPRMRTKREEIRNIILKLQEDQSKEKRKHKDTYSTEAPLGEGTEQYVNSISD

[10] = target: T8, Sentrin-specific protease 7 (Homo sapiens, UniProt Q9BQF6); assay: SENP7 protease inhibitors, SAR follow-up, biochemical, luminescence (AID 504497); format: functional
T8 sequence (Q9BQF6 whole entry): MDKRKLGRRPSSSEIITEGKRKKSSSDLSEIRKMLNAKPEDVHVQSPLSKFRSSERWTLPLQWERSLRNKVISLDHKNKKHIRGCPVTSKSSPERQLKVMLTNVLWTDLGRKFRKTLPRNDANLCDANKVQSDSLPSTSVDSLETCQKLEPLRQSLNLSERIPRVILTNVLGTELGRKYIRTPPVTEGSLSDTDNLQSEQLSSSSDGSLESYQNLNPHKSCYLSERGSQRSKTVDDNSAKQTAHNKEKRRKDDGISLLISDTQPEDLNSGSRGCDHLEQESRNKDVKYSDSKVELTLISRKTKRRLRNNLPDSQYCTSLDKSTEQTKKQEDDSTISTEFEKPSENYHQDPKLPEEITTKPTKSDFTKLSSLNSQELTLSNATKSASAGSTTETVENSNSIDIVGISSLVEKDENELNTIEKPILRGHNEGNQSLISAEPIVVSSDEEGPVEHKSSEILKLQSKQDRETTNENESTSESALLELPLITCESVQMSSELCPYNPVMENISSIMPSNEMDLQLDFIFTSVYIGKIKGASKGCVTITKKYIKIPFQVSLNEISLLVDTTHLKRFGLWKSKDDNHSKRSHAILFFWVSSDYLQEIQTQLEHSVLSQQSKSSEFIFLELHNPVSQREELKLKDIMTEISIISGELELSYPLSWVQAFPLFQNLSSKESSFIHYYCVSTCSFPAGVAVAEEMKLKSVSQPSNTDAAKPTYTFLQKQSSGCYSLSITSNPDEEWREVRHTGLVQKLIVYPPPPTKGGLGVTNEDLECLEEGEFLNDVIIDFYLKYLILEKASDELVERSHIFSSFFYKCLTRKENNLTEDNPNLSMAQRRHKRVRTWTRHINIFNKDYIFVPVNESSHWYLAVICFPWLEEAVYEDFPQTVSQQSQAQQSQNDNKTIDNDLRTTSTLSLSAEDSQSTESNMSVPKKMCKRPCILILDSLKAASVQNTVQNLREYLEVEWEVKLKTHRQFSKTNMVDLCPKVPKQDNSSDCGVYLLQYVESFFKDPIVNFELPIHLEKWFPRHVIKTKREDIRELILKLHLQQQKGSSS

[11] = test system: P388/ADR; assay: cells; format: functional; conditions: Mus musculus
[12] = test system: SN12K1; assay: cells; format: functional; conditions: Homo sapiens, SN12K1
[13] = test system: P388; assay: cells; format: functional; conditions: Mus musculus

CC(C)(C)C(=O)Oc1cccc(Nc2ncnc3ccccc23)c1
IC50 [1]: 13.8 µM (active)

CCOc1cccc(C2C(C(=O)c3ccc(C)o3)=C(O)C(=O)N2c2nccs2)c1 (centres undefined)
EC50 [2]: 1.41 µM (inconclusive) | EC50 [3]: 1.27 µM (active) | EC50 [4]: 16.9 µM (active) | EC50 [5]: > 99 µM (inactive)

C=CCN1C(=O)NC(=O)/C(=C(/CC)NC(C)c2ccccc2)C1=O (centres undefined)
IC50 [6]: > 80 µM (inactive) | IC50 [1]: 1.91 µM (active)

Cc1n[nH]c(C)c1CCCCOc1ccccc1[N+](=O)[O-]
IC50 [1]: 12.6 µM (active)

CCCCOc1ccc(OCCCC)c2c1NC1(N2)C(=O)N(C(C)=O)c2ccccc21
EC50 [4]: > 99 µM (inactive) | EC50 [5]: > 99 µM (inactive)

Cn1nc(C(F)(F)F)c(-c2ccccc2)c1NC(=O)c1cccnc1
IC50 [1]: 13.2 µM (active)

COc1ccc(C(=O)NN=c2c(=O)c3ccccc3c2=O)cc1
IC50 [7]: > 99 µM (inactive) | IC50 [8]: > 99 µM (inactive) | IC50 [9]: 4.15 µM (active) | IC50 [10]: > 99 µM (inactive)

Fc1ccc(N/N=C/c2c[nH]c3ccccc23)cc1
IC50 [7]: 45.2 µM (active) | IC50 [8]: > 99 µM (inactive) | IC50 [9]: 42.2 µM (active) | IC50 [10]: 27.2 µM (active)

O=C(O)CCN1C(=O)/C(=C/c2cccc(OCC(=O)Nc3ccc(Cl)cc3)c2)SC1=S
IC50 [7]: 92.8 µM (active) | IC50 [8]: > 99 µM (inactive) | IC50 [9]: 62.1 µM (active) | IC50 [10]: 78.2 µM (active)

O=C(Nc1ccc(F)cc1)c1ccc2c(c1)OCO2
IC50 [7]: 8.03 µM (active) | IC50 [8]: 1.92 µM (active) | IC50 [9]: 7.53 µM (active) | IC50 [10]: 2.75 µM (active)

O=NN1C(c2ccccc2)CCCC1c1ccccc1 (centres undefined)
GI50 [11]: 31.8 µM (inactive) | GI50 [12]: > 63.5 µM (inactive) | GI50 [13]: 27.5 µM (inactive)

CCCCNC(=O)/C(C#N)=c1\s/c(=C\c2ccccc2OC(F)F)c(=O)n1CCCOC
EC50 [4]: > 99 µM (inactive) | EC50 [5]: 88.5 µM (inactive)

COC(=O)c1ccc(/N=N/N(C)COc2ccc([N+](=O)[O-])cc2)cc1
GI50 [11]: 23.6 µM (inactive) | GI50 [12]: 40.2 µM (inactive) | GI50 [13]: 37.7 µM (inactive)

CN(C)c1ccc(/C=N/NC(=O)c2cnc3ccccc3c2)cc1
EC50 [4]: > 99 µM (inactive) | EC50 [5]: 26.4 µM (inactive)

O=S(=O)(O)c1ccc(/N=N\c2ccc(/N=N/c3ccc(/C=C/c4ccc(/N=[N+](\[O-])c5ccc(/C=C/c6ccc(/N=N/c7ccc(/N=N/c8ccc(S(=O)(=O)O)cc8)c8ccccc78)cc6S(=O)(=O)O)c(S(=O)(=O)O)c5)cc4S(=O)(=O)O)c(S(=O)(=O)O)c3)c3ccccc23)cc1
GI50 [12]: > 100 µM (inactive) | GI50 [13]: > 100 µM (inactive)
